Measurements as given in patent US20230404956A1, “T[…] FOR […]” (Asklepion Pharmaceuticals LLC, priority 2022, published 2023).

Columns and labels:
[1] = tested on: pediatric patients exposed to cardiopulmonary bypass in congenital heart defect surgery; assay: Phase 3 double-blind, placebo-controlled trial of citrulline in congenital heart defect surgery with cardiopulmonary bypass; type: in vivo
Description: A Phase 3 study was carried out as a double-blind, placebo-controlled trial to confirm the effect. The Phase 3 trial was performed in the US, EU, and Israel, using a modified intent-to-treat population (or modified full analysis set) of 190 patients, of whom 138 were in the US and 52 were ex-US.
The starting point for the analysis was consideration of the complete modified full analysis set, consisting of all enrolled patients who completed the protocol. […] The Modified Full Analysis Set consists of all enrolled patients who completed the protocol.
In the study protocol and accompanying pharmacy manual for both studies, citrulline dosing occurs in four distinct phases. Dose 1 is a loading dose added to the cardiopulmonary bypass fluids on a mg/kg basis. Dose 3 is a bolus administered following surgery on a mg/kg basis, and Dose 4 is an IV drip at 9 mg/kg/hour. No variation in administration of these doses was introduced during the course of the phase 3 study.
In contrast, Dose 2, the intraoperative dosing designed to compensate for ultrafiltration, was subject to some variation. Ultrafiltration during cardiac surgery is not standardized, and therefore, it was not possible to completely standardize this dose. The perfusionist estimates the volume of ultrafiltrate removed, as well as the volume of cardioplegia solution. The perfusionist then calculates according to the study pharmacy manual instructions the amount of citrulline to be administered to compensate for the ultrafiltered citrulline in order to maintain a specified therapeutic level.
Although the therapeutic target level was set at 100 micromolar during the phase 2 study, because of the potential for variation in Dose 2 (which is given intraoperatively to compensate for the routine ongoing ultrafiltration of circulating bypass fluids to reduce the circulating concentrations of inflammatory mediators) and the concern that some patients might inadvertently receive sub-therapeutic intraoperative levels, the target level for Dose 2 in the phase 3 study was increased to 200 micromolar. This was considered to be safe since no adverse effects of citrulline had been reported, even at substantially higher levels in medical use. In order to examine whether variation in Dose 2 could explain the results obtained, the actual dose received, shown as the percent of the targeted dose, was plotted against the composite variable results. Since placebos received no citrulline, they were plotted at the 0% level.
For the Phase 3 trial, a target intraoperative dose of […] (Dose 2) was chosen to preclude an inadvertent drop below an efficacious level in any patient. The potential for variation in intraoperative dosing arises from the lack of standardization of cardiopulmonary bypass ultrafiltration techniques. […] Nonetheless, expansion of the study to a greater number of sites raised the concern that some sites might inadvertently underdose Dose 2. Given the known innocuous nature of L-citrulline, an endogenous amino acid that is given medicinally in doses an order of magnitude higher than this to urea cycle disorder patients, as well as the well-tolerated high endogenous concentrations of citrulline in hypercitrullinemia patients, there was no concern for erring on the high side of the presumed effective dose.
To investigate the data in more detail, patients were stratified according to the dose level actually administered intraoperatively. The values obtained for duration of mechanical ventilation (MV), length of inotrope therapy (InoTx) and the composite primary (created for the SAP, based on the longer of the MV or InoTx) in any patient were segmented into groups based on the percent of the 200 μmol target dose actually received by the patient, by comparing patients who had received <65%, <75%, <85%, <95%, and >95% of the calculated target dose. […] Analysis was performed via two-sided Wilcoxon Rank Sum. […]

[2] = tested on: pediatric patients undergoing surgical procedures involving cardiopulmonary bypass; settings: 22 patients (11 Tx, 11 PL); Dose 2 100 μmol; cited from earlier work
nitric oxide production = assay: Nitric oxide production in a murine system, measured via NO metabolites
Source text: It is important to recall that citrulline is regenerated in the last step of NO production, making negative feedback by citrulline a reasonable hypothesis. Alternatively, an acute increase in NO production, which is known to have a negative feedback effect on NOS (Viziri and Wang, 1999) could explain the results. […] The negative clinical effects in the >95% group for the Phase 3 trial may thus result from one or more negative feedback mechanisms. The negative feedback could result from either the effect of NO or the citrulline itself creating feedback on the system.

NC(=O)NCCC[C@H](N)C(=O)O [citrulline, L-citrulline]
Composite (the longer of the MV or InoTx), median ([1]; <65% of target Dose 2, p = 0.0040 vs placebo): 1267.0 min | Vent (duration of mechanical ventilation), median ([1]; <65% of target Dose 2, p = 0.0097 vs placebo): 139.0 min | Inotrope (duration of inotrope therapy), median ([1]; <65% of target Dose 2, p = 0.0211 vs placebo): 1260.0 min | PICU/NICU stay, median ([1]; <65% of target Dose 2, p = 0.0236 vs placebo): 2 days | Hospitalization, median ([1]; <65% of target Dose 2, p = 0.0953 vs placebo): 4 days | Long-term hospitalizations, citrulline-treated vs placebo ([1]; <75% of calculated Dose 2): fewer long-term hospitalizations | Overall length of hospital stay, citrulline vs placebo ([1]; <75% of calculated Dose 2): not significantly different | Reduction of median Composite time vs placebo ([1]; <75% of target Dose 2): 42% | Reduction of median Inotrope time vs placebo ([1]; <75% of target Dose 2): 26% | Reduction of median Mechanical Ventilation time vs placebo ([1]; <75% of target Dose 2): 70% | Reduction of median PICU/NICU stay vs placebo ([1]; <75% of target Dose 2): 33% | Composite (the longer of the MV or InoTx), median ([1]; <75% of target Dose 2, p = 0.0025 vs placebo): 1267.0 min | Vent (duration of mechanical ventilation), median ([1]; <75% of target Dose 2, p = 0.0129 vs placebo): 170.0 min | Inotrope (duration of inotrope therapy), median ([1]; <75% of target Dose 2, p = 0.0158 vs placebo): 1260.0 min | PICU/NICU stay, median ([1]; <75% of target Dose 2, p = 0.0295 vs placebo): 2 days | Hospitalization, median ([1]; <75% of target Dose 2, p = 0.1905 vs placebo): 5 days | Composite (the longer of the MV or InoTx), median ([1]; <85% of target Dose 2, p = 0.0029 vs placebo): 1283.5 min | Vent (duration of mechanical ventilation), median ([1]; <85% of target Dose 2, p = 0.0163 vs placebo): 176.0 min | Inotrope (duration of inotrope therapy), median ([1]; <85% of target Dose 2, p = 0.0176 vs placebo): 1263.5 min | PICU/NICU stay, median ([1]; <85% of target Dose 2, p = 0.0332 vs placebo): 2 days | Hospitalization, median ([1]; <85% of target Dose 2, p = 0.1369 vs placebo): 5 days | Composite (the longer of the MV or InoTx), median ([1]; <95% of target Dose 2, p = 0.0033 vs placebo): 1357.0 min | Inotrope (duration of inotrope therapy), median ([1]; <95% of target Dose 2, p = 0.0242 vs placebo): 1300.0 min | Vent (duration of mechanical ventilation), median ([1]; <95% of target Dose 2, p = 0.0459 vs placebo): 237.0 min | PICU/NICU stay, median ([1]; <95% of target Dose 2, p = 0.1232 vs placebo): 2 days | Hospitalization, median ([1]; <95% of target Dose 2, p = 0.3169 vs placebo): 5 days | Hospitalization, median ([1]; >95% of target Dose 2, p = 0.0006 vs placebo): 7 days | PICU/NICU stay, median ([1]; >95% of target Dose 2, p = 0.0034 vs placebo): 4 days | Vent (duration of mechanical ventilation), median ([1]; >95% of target Dose 2, p = 0.0041 vs placebo): 2385.0 min | Inotrope (duration of inotrope therapy), median ([1]; >95% of target Dose 2, p = 0.0069 vs placebo): 3142.5 min | Composite (the longer of the MV or InoTx), median ([1]; >95% of target Dose 2, p = 0.0114 vs placebo): 3447.0 min | Composite (the longer of the MV or InoTx), median ([1]; All Patients, p = 0.3398 vs placebo (median 2204.0)): 1640.0 min | Hospitalization, median ([1]; All Patients, p = 0.3681 vs placebo (median 5)): 5 days | Inotrope (duration of inotrope therapy), median ([1]; All Patients, p = 0.7131 vs placebo (median 1717.0)): 1514.0 min | PICU/NICU stay, median ([1]; All Patients, p = 0.8484 vs placebo (median 3)): 3 days | Vent (duration of mechanical ventilation), median ([1]; All Patients, p = 0.9205 vs placebo (median 574.5)): 672.0 min | Reduction in the length of stay in the PICU or NICU following surgery ([1]; Dose 2 at levels <95%, statistically significant): one | Duration of MV, InoTx and composite primary, vs placebo ([1]; all doses under 95% of the target, two-sided Wilcoxon Rank Sum): Statistically significant reduction of all variables | Composite endpoint, treated vs placebo ([1]; complete modified full analysis set): no difference | Effect on composite variable, duration of mechanical ventilation and inotrope therapy vs placebo ([1]; doses higher than 95% of target (>190 μmol)): statistically significant negative effect | Primary parameters (duration of MV & InoTx), treated vs placebo [2]: near-significance | Nitric oxide production as measured via NO metabolites (nitric oxide production; continued increase in citrulline concentration): diminished production of NO | Nitric oxide production (nitric oxide production; increasing levels of citrulline, initially): initially facilitate nitric oxide production
